Measured values reported in patent publication US4556660A, “N-(Bicyclic heterocyclyl)-4-piperidinamines” (Janssen Pharmaceutica N.V., priority 1983, dated 1985).
Like-named read-outs stand apart in the source and are kept apart here.

How the values were obtained:
[1] = system: serotonin; compound 48/80-induced gastric lesions; assay: Antagonistic activity on the effects of serotonin in the gastric lesion test (lesions induced by compound 48/80); assay type: in vivo, Male rats of a Wistar inbred strain
Procedure: Antagonistic activity on the effects of serotonin in the gastric lesion test
Male rats of a Wistar inbred strain, weighing 220-250 g, were starved overnight, water being available ad libitum. The test compounds were administered orally as a solution or as a suspension in aqueous medium. A control rat and a "blank" rat received the test compound. One hour later 5-[4-(diphenylmethyl)-1-piperazinylmethyl]-1-methyl-1H-benzimidazole-2-methanol was administered subcutaneously to all rats at the dose of 2.5 mg/kg.
Four hours after the intravenous injection of compound 48/80, the rats were decapitated and the stomachs were removed. Subsequently the stomachs were inspected for distension and contents (blood, fluid, food) and thoroughly rinsed. The macroscopic lesions were scored from 0 to +++, 0 corresponding to complete absence of visible lesions and the highest score corresponding to reddish rough patches covering more than half the glandular area.

[2] = system: compound 48/80-induced lethality; assay: Protection of rats from compound 48/80-induced lethality; assay type: in vivo, Male rats of an inbred Wistar strain; conditions: Rattus norvegicus, 4 h, read-out: compound 48/80 lethality test rats-ED50
Procedure: Protection of rats from compound 48/80-induced lethality
The protection from compound 48/80-induced lethal circulatory collapse appears to be a simple way of evaluating quantitatively the antihistaminic activity of test compounds. Male rats of an inbred Wistar strain, weighing 240-260 g were used in the experiment. After overnight starvation the rats were transferred to conditioned laboratories (temp.=21±1° C., relative humidity-65±5%).
The rats were treated subcutaneously or orally with a test compound or with the solvent (NaCl solution, 0.9%). […] Survival after 4 hours is therefore considered to be a safe criterion of a protective effect of drug administration.
The ED50 -values of the compounds of formula (I) and the intermediates of formula (XVIII) are listed in the first column of table 1 and table 2. Said ED50 -values are the values in mg/kg body weight at which the tested compounds protect 50% of the tested animals against compound 48/80-induced lethality.

[3] = Rattus norvegicus, po; read-out: gastric lesion test ED50
[4] = Rattus norvegicus, po, read-out: gastric lesion test ED50

SMILES | ED50 [1, 3] [mg/kg] | ED50 [2] [mg/kg] | ED50 [1, 4] [mg/kg]
c1cnc(NCCN2CCC(Nc3nc4cccnc4n3Cc3ccco3)CC2)nc1 [Compound 28, 3-(2-furanylmethyl)-N-[1-[2-(2-pyrimidinylamino)ethyl]-4-piperidinyl]-3H-imidazo[4,5-b]pyridin-2-amine] | 0.63 | 0.04 | 
Cl.Cl.Cl.Fc1ccc(Cn2c(NC3CCN(CCCNc4ccc(Cl)cn4)CC3)nc3ccccc32)cc1.O [Compound 30, N-[1-[3-[(5-chloro-2-pyridinyl)amino]propyl]-4-piperidinyl]-1-[(4-fluorophenyl)methyl]-1H-benzimidazol-2-amine trihydrochloride monohydrate] | 2.5 | 0.63 | 
Nc1c(Cl)ncnc1NCCN1CCC(Nc2nc3ccccc3n2Cc2ccc(F)cc2)CC1 [Compound 31, 6-chloro-N^4-[2-[4-[[1-[(4-fluorophenyl)methyl]-1H-benzimidazol-2-yl]amino]-1-piperidinyl]ethyl]-4,5-pyrimidinediamine] | 1.25 | 0.16 | 
Fc1ccc(Cn2c(NC3CCN(CCNc4cnccn4)CC3)nc3ccccc32)cc1 [Compound 33] | 2.5 | 0.16 | 
Nc1cc(NCCN2CCC(Nc3nc4ccccc4n3Cc3ccc(F)cc3)CC2)nc(N)n1 [Compound 34] | 0.16 | 0.08 | 
NC(=O)c1cccnc1NCCN1CCC(Nc2nc3ccccc3n2Cc2ccc(F)cc2)CC1 [Compound 36] | 0.16 | 0.08 | 
Fc1ccc(Cn2c(NC3CCN(CCNc4ccc(Cl)nn4)CC3)nc3ccccc32)cc1 [Compound 37] | 1.25 | 0.08 | 
Fc1ccc(Cn2c(NC3CCN(CCNc4ccc(Br)cn4)CC3)nc3ccccc32)cc1 [Compound 39] | 2.5 | 0.31 | 
Fc1ccc(Cn2c(NC3CCN(CCNc4ncccc4Cl)CC3)nc3ccccc32)cc1 [Compound 40] | 0.31 | 0.16 | 
NC(=O)c1ccc(NCCN2CCC(Nc3nc4ccccc4n3Cc3ccc(F)cc3)CC2)nc1 [Compound 42] |  | 0.04 | 0.08
c1cnc(NCCN2CCC(Nc3nc4ccccc4n3Cc3ccco3)CC2)nc1 [Compound 43] |  | 0.16 | 0.04
NC(=O)c1cccnc1NCCN1CCC(Nc2nc3ccccc3n2Cc2ccco2)CC1 [Compound 46] | 0.63 | 0.04 | 
Fc1ccc(Cn2c(NC3CCN(CCNc4ncccc4Cl)CC3)nc3cccnc32)cc1 [Compound 47] | 0.31 | 0.08 | 
Brc1ccc(NCCN2CCC(Nc3nc4ccccc4n3Cc3ccccc3)CC2)nc1 [Compound 49] | 2.5 | 0.31 | 
Cc1ccc(Cn2c(NC3CCN(CCNc4ccc(Br)cn4)CC3)nc3ccccc32)cc1 [Compound 51] |  | 0.02 | 0.08
CN(CCN1CCC(Nc2nc3ccccc3n2Cc2ccc(F)cc2)CC1)c1ccc(Cl)cn1 [Compound 56] | 1.25 | 0.31 | 
Cl.Cl.Fc1ccc(Cn2c(NC3CCN(CCNc4ccnc(Cl)n4)CC3)nc3ccccc32)cc1.O [Compound 60, N-[1-[2-[(2-chloro-4-pyrimidinyl)amino]ethyl]-4-piperidinyl]-1-[(4-fluorophenyl)methyl]1H-benzimidazol-2-amine dihydrochloride monohydrate] | 2.5 | 0.31 | 
Cc1cc(NCCN2CCC(Nc3nc4ccccc4n3Cc3ccc(F)cc3)CC2)nc(Cl)n1 [Compound 61, N-[1-[2-[(2-chloro-6-methyl-4-pyrimidinyl)amino]ethyl]-4-piperidinyl]-1-[(4-fluorophenyl)methyl]-1H-benzimidazol-2-amine] | 2.5 | 0.08 | 
Nc1nc(NCCN2CCC(Nc3nc4ccccc4n3Cc3ccc(F)cc3)CC2)ccc1[N+](=O)[O-] [Compound 63, N^6-[2-[4-[[1-[(4-fluorophenyl)methyl]1H-benzimidazol-2-yl]amino]-1-piperidinyl]ethyl]-3-nitro-2,6-pyridinediamine] | 2.5 | 0.31 | 
